Results published in US20120088279A1, “ALGAL LIPID PRODUCTION” (Phycal, Inc., priority 2009, published 2012).

Test system: Nannochloropsis sp.
Test: Pulsed chlorate stress with non-destructive lipid extraction of algae culture
Type: cell-based
Conditions: chlorate stress 18 hours under nutrient-replete conditions, repeated cycles, compared to identical system with the cycle carried out only once
Source text: Nannochloropsis sp., a unicellular alga capable of producing large amounts of triacylglycerides, can be grown in f/2 medium with 1/3rd strength Instant Ocean under indoor lighting in 800 L raceway systems either kept moving with a submerged pump or paddlewheel. The algae are first grown under normal, nutrient replete conditions. Upon achieving a set concentration in culture sufficient for economical extraction (e.g., 1.0 g/L), an amount of chlorate sufficient to block nitrogen uptake by the Nannochloropsis is added. The Nannochloropsis culture is then allowed to grow under these conditions of nutrient assimilation inhibition for 18 hours. Twenty five percent of the algae culture is then removed and subjected to a non-destructive extraction process, while ammonia is added to the remaining in an amount sufficient to renew normal nitrogen uptake.
The removed portion of the culture is then mixed with dodecane or undecane or a mixture of the two for 15 minutes, during which sonication is applied for 2 seconds at 40 kHz. The mixture is partitioned with the upper solvent level removed by decanting, and the lower aqueous layer is then returned to the original algae culture, in which non-stressed growth has resumed as a result of the addition of ammonia. […]

[O-][Cl+2]([O-])O [chlorate]
levels of lipid obtained during subsequent cycles: higher levels of lipid
